What was measured:
Experiment in all cases: DSF Tm panel
Format in all cases: binding
Conditions in all cases: 10 μM compound
DAPK3 (DAPK3A) = molecular target: T1, DAPK3 (DAPK3A) (Homo sapiens, UniProt O43293)
T1 construct: purchased in-house DSF kinase panel (SGC-style construct names; the trailing letter is the construct ID)

BRAFA = molecular target: T2, BRAFA (Homo sapiens, UniProt P15056)
T2 construct: purchased in-house DSF kinase panel (SGC-style construct names; the trailing letter is the construct ID)
T2 sequence (P15056 448-723): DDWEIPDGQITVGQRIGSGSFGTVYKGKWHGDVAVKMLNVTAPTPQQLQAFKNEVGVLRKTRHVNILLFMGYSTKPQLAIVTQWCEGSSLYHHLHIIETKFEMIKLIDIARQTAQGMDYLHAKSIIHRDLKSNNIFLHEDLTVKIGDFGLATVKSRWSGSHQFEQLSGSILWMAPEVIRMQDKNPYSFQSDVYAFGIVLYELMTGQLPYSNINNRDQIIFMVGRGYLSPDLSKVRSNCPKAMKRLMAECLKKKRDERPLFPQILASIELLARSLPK

DAPK1 (DAPK1A) = molecular target: T3, DAPK1 (DAPK1A) (Homo sapiens, UniProt P53355)
T3 construct: purchased in-house DSF kinase panel (SGC-style construct names; the trailing letter is the construct ID)
T3 sequence (P53355 1-285): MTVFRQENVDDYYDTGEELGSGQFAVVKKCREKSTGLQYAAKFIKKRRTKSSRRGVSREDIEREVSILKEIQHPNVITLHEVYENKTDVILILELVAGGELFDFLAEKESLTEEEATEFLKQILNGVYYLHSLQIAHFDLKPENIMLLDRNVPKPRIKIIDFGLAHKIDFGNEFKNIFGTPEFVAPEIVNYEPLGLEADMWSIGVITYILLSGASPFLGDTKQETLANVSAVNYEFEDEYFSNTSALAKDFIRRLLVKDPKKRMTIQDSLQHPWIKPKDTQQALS

PIM3A = molecular target: T4, PIM3A (Homo sapiens, UniProt Q86V86)
T4 construct: purchased in-house DSF kinase panel (SGC-style construct names; the trailing letter is the construct ID)

GAKA = molecular target: T5, GAKA (Homo sapiens, UniProt O14976)
T5 construct: purchased in-house DSF kinase panel (SGC-style construct names; the trailing letter is the construct ID)
T5 sequence (O14976 14-351): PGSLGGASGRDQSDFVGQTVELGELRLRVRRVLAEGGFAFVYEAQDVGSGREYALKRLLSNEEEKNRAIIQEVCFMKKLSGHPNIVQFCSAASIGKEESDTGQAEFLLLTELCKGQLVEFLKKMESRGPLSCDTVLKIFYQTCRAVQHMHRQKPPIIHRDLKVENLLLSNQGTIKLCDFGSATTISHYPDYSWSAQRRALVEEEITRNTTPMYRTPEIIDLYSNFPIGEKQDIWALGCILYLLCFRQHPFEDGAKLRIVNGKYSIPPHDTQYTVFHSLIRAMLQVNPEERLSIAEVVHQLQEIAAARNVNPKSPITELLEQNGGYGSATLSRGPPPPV

STK6A = molecular target: T6, STK6A (Homo sapiens, UniProt O14965)
T6 construct: purchased in-house DSF kinase panel (SGC-style construct names; the trailing letter is the construct ID)
T6 sequence (O14965 122-403): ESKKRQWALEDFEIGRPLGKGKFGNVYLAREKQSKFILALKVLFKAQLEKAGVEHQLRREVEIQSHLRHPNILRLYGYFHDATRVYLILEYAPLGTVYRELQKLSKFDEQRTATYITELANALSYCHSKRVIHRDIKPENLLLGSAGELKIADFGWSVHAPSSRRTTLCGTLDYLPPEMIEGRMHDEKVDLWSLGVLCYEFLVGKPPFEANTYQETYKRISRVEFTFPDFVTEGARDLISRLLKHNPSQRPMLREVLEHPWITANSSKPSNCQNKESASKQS

PAK1A = molecular target: T7, PAK1A (Homo sapiens, UniProt Q13153)
T7 construct: purchased in-house DSF kinase panel (SGC-style construct names; the trailing letter is the construct ID)
T7 sequence (Q13153 249-545): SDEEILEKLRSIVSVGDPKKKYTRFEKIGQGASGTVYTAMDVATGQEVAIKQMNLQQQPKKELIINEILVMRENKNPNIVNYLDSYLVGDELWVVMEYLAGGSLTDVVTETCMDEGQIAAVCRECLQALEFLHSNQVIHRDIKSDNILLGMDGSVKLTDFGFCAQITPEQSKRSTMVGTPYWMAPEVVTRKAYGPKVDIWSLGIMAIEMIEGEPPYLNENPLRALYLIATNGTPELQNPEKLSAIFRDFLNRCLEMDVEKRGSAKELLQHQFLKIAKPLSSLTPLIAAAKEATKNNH

MAP2K1A = molecular target: T8, MAP2K1A (Homo sapiens, UniProt Q02750)
T8 construct: purchased in-house DSF kinase panel (SGC-style construct names; the trailing letter is the construct ID)
T8 sequence (Q02750 68-361): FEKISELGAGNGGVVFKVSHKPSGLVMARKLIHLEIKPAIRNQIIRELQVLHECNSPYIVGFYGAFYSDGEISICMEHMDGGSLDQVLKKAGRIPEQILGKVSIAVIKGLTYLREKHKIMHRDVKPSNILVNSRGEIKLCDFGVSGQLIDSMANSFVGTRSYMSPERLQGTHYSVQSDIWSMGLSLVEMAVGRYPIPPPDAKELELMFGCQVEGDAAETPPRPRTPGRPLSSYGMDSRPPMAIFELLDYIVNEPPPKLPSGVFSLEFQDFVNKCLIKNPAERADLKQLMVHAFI

ULK1A = molecular target: T9, ULK1A (Homo sapiens, UniProt O75385)
T9 construct: purchased in-house DSF kinase panel (SGC-style construct names; the trailing letter is the construct ID)
T9 sequence (O75385 1-283): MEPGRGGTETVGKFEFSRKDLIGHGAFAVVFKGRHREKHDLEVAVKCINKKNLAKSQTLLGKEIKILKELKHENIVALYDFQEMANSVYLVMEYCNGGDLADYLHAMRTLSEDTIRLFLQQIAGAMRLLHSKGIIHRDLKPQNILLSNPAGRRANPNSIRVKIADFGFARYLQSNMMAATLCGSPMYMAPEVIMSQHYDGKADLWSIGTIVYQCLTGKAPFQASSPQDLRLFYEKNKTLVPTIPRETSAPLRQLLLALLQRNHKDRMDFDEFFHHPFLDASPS

BMX (BMXA) = molecular target: T10, BMX (BMXA) (Homo sapiens, UniProt P51813)
T10 construct: purchased in-house DSF kinase panel (SGC-style construct names; the trailing letter is the construct ID)
T10 sequence (P51813 411-675): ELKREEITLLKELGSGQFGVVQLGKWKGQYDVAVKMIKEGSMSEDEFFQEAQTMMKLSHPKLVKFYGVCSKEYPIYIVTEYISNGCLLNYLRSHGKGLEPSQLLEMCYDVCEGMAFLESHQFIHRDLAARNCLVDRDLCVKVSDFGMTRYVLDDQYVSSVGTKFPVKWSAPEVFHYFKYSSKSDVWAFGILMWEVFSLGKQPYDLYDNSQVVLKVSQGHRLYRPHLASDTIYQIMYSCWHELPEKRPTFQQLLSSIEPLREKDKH

CAMK4A = molecular target: T11, CAMK4A (Homo sapiens, UniProt Q16566)
T11 construct: purchased in-house DSF kinase panel (SGC-style construct names; the trailing letter is the construct ID)
T11 sequence (Q16566 1-473): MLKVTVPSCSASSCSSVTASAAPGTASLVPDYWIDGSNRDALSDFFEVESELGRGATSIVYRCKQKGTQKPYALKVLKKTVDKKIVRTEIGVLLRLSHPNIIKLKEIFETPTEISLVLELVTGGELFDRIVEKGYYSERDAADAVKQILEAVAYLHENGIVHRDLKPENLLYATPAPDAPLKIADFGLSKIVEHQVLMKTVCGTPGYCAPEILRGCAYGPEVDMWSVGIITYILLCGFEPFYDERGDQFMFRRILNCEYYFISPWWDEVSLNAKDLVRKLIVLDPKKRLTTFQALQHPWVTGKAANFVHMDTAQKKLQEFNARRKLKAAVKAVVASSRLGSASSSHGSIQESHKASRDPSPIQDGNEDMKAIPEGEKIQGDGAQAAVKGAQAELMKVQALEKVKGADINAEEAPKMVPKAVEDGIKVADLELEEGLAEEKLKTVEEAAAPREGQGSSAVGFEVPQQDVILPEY

GSK3BB = molecular target: T12, GSK3BB (Homo sapiens, UniProt P49841)
T12 construct: purchased in-house DSF kinase panel (SGC-style construct names; the trailing letter is the construct ID)
T12 sequence (P49841 35-386): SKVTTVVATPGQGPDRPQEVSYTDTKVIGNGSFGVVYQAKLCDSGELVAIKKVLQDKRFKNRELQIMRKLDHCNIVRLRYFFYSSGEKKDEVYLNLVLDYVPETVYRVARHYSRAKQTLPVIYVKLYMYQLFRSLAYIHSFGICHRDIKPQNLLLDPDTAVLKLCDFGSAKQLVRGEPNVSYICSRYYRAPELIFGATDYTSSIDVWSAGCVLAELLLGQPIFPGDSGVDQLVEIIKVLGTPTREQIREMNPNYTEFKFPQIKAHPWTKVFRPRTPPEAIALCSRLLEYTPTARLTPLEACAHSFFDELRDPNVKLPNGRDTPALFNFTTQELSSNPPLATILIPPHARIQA

DYRK1AA = molecular target: T13, DYRK1AA (Homo sapiens, UniProt Q13627)
T13 construct: purchased in-house DSF kinase panel (SGC-style construct names; the trailing letter is the construct ID)

OSR1A = molecular target: T14, OSR1A (Homo sapiens, UniProt O95747)
T14 construct: purchased in-house DSF kinase panel (SGC-style construct names; the trailing letter is the construct ID)
T14 sequence (O95747 17-291): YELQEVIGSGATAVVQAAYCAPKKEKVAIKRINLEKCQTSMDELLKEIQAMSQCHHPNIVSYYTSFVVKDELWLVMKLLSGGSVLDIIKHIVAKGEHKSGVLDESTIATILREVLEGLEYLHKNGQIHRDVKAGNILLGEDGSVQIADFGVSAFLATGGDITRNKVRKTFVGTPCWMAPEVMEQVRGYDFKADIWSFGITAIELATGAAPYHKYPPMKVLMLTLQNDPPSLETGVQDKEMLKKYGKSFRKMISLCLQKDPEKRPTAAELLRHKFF

CDKL1A = molecular target: T15, CDKL1A (Homo sapiens, UniProt Q00532)
T15 construct: purchased in-house DSF kinase panel (SGC-style construct names; the trailing letter is the construct ID)
T15 sequence (Q00532 1-303): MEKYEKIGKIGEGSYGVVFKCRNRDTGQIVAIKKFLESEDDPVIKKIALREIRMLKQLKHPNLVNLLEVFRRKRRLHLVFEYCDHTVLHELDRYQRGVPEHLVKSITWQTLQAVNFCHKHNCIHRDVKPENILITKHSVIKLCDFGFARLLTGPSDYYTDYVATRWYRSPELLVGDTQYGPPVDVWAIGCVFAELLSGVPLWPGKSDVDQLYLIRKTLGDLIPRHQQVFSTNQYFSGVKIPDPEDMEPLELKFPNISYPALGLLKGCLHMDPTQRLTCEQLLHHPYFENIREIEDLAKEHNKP

T1 sequence (O43293 whole entry): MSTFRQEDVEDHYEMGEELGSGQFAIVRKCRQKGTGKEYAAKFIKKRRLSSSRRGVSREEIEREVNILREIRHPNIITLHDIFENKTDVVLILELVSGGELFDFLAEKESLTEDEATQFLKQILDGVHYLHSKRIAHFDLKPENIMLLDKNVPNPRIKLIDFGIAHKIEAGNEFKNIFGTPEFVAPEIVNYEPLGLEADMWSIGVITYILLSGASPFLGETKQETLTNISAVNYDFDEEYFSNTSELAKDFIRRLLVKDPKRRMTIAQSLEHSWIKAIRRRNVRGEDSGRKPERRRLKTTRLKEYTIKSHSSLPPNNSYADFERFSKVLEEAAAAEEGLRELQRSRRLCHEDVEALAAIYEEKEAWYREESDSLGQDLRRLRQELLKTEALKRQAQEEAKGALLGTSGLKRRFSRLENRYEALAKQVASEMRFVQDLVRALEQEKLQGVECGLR

Structure (SMILES)	ΔTm at 10 µM (DAPK3 (DAPK3A))	ΔTm at 10 µM (BRAFA)	ΔTm at 10 µM (DAPK1 (DAPK1A))	ΔTm at 10 µM (PIM3A)	ΔTm at 10 µM (GAKA)	ΔTm at 10 µM (STK6A)	ΔTm at 10 µM (PAK1A)	ΔTm at 10 µM (MAP2K1A)	ΔTm at 10 µM (ULK1A)	ΔTm at 10 µM (BMX (BMXA))	ΔTm at 10 µM (CAMK4A)	ΔTm at 10 µM (GSK3BB)	ΔTm at 10 µM (DYRK1AA)	ΔTm at 10 µM (OSR1A)	ΔTm at 10 µM (CDKL1A)
O=C(NCc1ccccc1)Nc1ccc2cc1OCCOCCNc1ccn3ncc-2c3n1 [compound 16]	3.4 °C	0.8 °C	1.3 °C	2.4 °C	6.1 °C	7.5 °C	0.1 °C	-0.1 °C	0.6 °C	1.7 °C	0.5 °C	1.1 °C	3.8 °C	0.5 °C	-0.1 °C
O=C(NCc1ccccc1Cl)Nc1ccc2cc1OCCOCCNc1ccn3ncc-2c3n1 [compound 17]	0.7 °C	0.8 °C	0.1 °C	2.4 °C	4.8 °C	6.7 °C	0.6 °C	-0.2 °C	0.3 °C	1.2 °C	0.6 °C	1 °C	-1.3 °C	0.7 °C	0.4 °C
O=C(NCc1cccc(Cl)c1)Nc1ccc2cc1OCCOCCNc1ccn3ncc-2c3n1 [compound 18]	1.3 °C	0.6 °C	0.3 °C	3 °C	4.1 °C	7.3 °C	0.7 °C	0.2 °C	0.3 °C	1.4 °C	1.3 °C	0 °C	1.1 °C	1.7 °C	-0.1 °C
O=C(NCc1ccc(Cl)cc1)Nc1ccc2cc1OCCOCCNc1ccn3ncc-2c3n1 [compound 19]	0.9 °C	0.8 °C	-0.1 °C	2.4 °C	4.4 °C	7.1 °C	0.9 °C	0.1 °C	0.4 °C	1.4 °C	1 °C	0.6 °C	-1 °C	0.7 °C	0.3 °C
O=C(NCc1ccc(Cl)cc1Cl)Nc1ccc2cc1OCCOCCNc1ccn3ncc-2c3n1 [compound 20]	0.5 °C	0.4 °C	0.2 °C	3.3 °C	2.4 °C	7.4 °C	2.5 °C	0.8 °C	0.6 °C	1.6 °C	0.4 °C	0.6 °C	0.6 °C	1.8 °C	0.9 °C
O=C(NCc1ccc(Cl)cc1F)Nc1ccc2cc1OCCOCCNc1ccn3ncc-2c3n1 [compound 21]	1.1 °C	0.5 °C	0.3 °C	3.9 °C	3.9 °C	6.9 °C	1 °C	1.2 °C	0.2 °C	1.4 °C	0.9 °C	0.2 °C	0.7 °C	1.6 °C	0 °C
Cc1cc(Cl)ccc1CNC(=O)Nc1ccc2cc1OCCOCCNc1ccn3ncc-2c3n1 [compound 23]	-0.3 °C	0.5 °C	0.1 °C	2.2 °C	2.8 °C	5.6 °C	2 °C	0.6 °C	0.3 °C	1.8 °C	0.6 °C	0.4 °C	2.6 °C	0.8 °C	0.4 °C
Cc1cc(Br)ccc1CNC(=O)Nc1ccc2cc1OCCOCCNc1ccn3ncc-2c3n1 [compound 24]	0.4 °C	-0.3 °C	-0.3 °C	2.8 °C	5.9 °C	5.4 °C	1.1 °C	0.6 °C	0 °C	1.8 °C	0.8 °C	-0.2 °C	0.4 °C	1.6 °C	0.5 °C
Cc1ccc(F)cc1CNC(=O)Nc1ccc2cc1OCCOCCNc1ccn3ncc-2c3n1 [compound 26]	1.2 °C	-0.6 °C	0.2 °C	4 °C	6 °C	6.4 °C	0.7 °C	0.3 °C	0.1 °C	0.3 °C	0.8 °C	0.5 °C	0.8 °C	1.2 °C	0.5 °C
O=C(NCc1ccccc1C(F)(F)F)Nc1ccc2cc1OCCOCCNc1ccn3ncc-2c3n1 [compound 27]	1.2 °C	-0.4 °C	0.1 °C	4.6 °C	5.4 °C	7 °C	1.5 °C	0.7 °C	0.4 °C	3 °C	1.2 °C	-0.2 °C	1 °C	2.1 °C	0.4 °C
O=C(NCc1ccc(C(F)(F)F)cc1)Nc1ccc2cc1OCCOCCNc1ccn3ncc-2c3n1 [compound 28]	1.2 °C	0 °C	0.4 °C	4.3 °C	5.1 °C	7.6 °C	1.8 °C	1 °C	0.6 °C	2.7 °C	1 °C	0.2 °C	1.6 °C	2.2 °C	0.6 °C
COc1ccccc1CNC(=O)Nc1ccc2cc1OCCOCCNc1ccn3ncc-2c3n1 [compound 29]	0.5 °C	-0.4 °C	-0.1 °C	3.9 °C	4.5 °C	5.6 °C	0.1 °C	0.6 °C	0.4 °C	-0.1 °C	0.6 °C	1.2 °C	-0.5 °C	0.9 °C	0.2 °C
COc1cccc(CNC(=O)Nc2ccc3cc2OCCOCCNc2ccn4ncc-3c4n2)c1 [compound 30]	1.2 °C	-0.2 °C	0.1 °C	4.1 °C	4.7 °C	7.4 °C	0.2 °C	0.6 °C	0.5 °C	0.4 °C	0.8 °C	1.3 °C	-0.4 °C	1.2 °C	0.3 °C

Reference: publication PMC12621043, “Un-LOK-ing a New Approach for Conformational Selective Targeting of STK10 (LOK)” (ACS Medicinal Chemistry Letters, 2025)
